Assay results published in patent US4932871A, “Rapid method for preparing chromogenic alpha-amylase substrate compounds at high preparative yields” (Miles Inc., priority 1987, dated 1990).
Several values for one entry are separate records, joined by “and”; a condition that tells them apart may be missing. Equal entries are not always repeated.

Experiments:
[1] = tested on: β-D-glucosidase; assay: Hydrolysis of the glucoside substrate by β-D-glucosidase (Kcat, Km); format: biochemical; conditions: 50 mM phosphate buffered solution (pH 7.4) containing 5.0 mM MgCl2
[2] = Solubility in phosphate buffered solution; format: physicochemical; conditions: phosphate buffered solution (pH 7.4)
Excerpt: The resulting glucoside has an absorbance (λmax) of 438 nm (yellow), an extinction coefficient of 27,400, and is soluble in a phosphate buffered solution (pH 7.4). […] Accordingly, such compound provides a very advantageous substrate for a secondary enzyme, such as β-D-glucosidase, in an assay system for α-amylase.

[3] = tested on: α-amylase; assay: Analytical test device for the detection of α-amylase (filter paper impregnated with DMA-G7 reagent); format: biochemical; conditions: between 180 and 200 seconds, three aliquots
Protocol: A sheet of Whatman 54 filter paper (Whatman, Inc., Clifton, N.J., USA) was immersed into a solution comprising the liquid α-amylase detection reagent prepared according to Example 3, 0.1% Triton X-100 (Sigma Chemical Co., St. Louis, Mo., USA) and 0.5% carboxycellulose, and dried.
Analytical test devices were prepared by mounting 0.5 cm wide ×1.0 cm long segment of the aforementioned impregnated filter paper onto and along the edge of one surface of 0.5 cm×8.125 cm polystyrene supports (Tricite®, Dow Chemical Co., Midland, Mich., USA) previously laminated with a 2 mm strip of Double Stick® double-faced adhesive tape (3M Company, St. Paul, Minn., USA).
Three 30 μL aliquots of undiluted serum containing 39 IU/L, 78 IU/L, 117 IU/L, 157 IU/L, 235 IU/L, and 313 IU/L, respectively, of α-amylase were applied, independently, to a test device and the rate of color change produced by the liberated chromogen on each device was measured at 630 nm on a Seralyzer® reflectance photometer (Miles Inc., Elkhart, Ind., USA) from between 0 seconds and 240 seconds after the serum sample was added to each test device.

[4] = tested on: α-amylase; assay: Liquid analytical test system for the detection of α-amylase (DMA-G7, α-glucosidase, β-glucosidase); format: biochemical; conditions: average of three consecutive readings between 3 and 6 minutes
Protocol: A liquid α-amylase detection reagent was prepared by combining 1.8 mM DMA-G7 prepared according to Example 2, 38 units of α-glucosidase and 20 units of β-glucosidase in 1.0 mL of buffered solution comprising 50 mM PIPES, 50 mM NaCl, and 5.0 mM calcium chloride (pH 7.0). Amylase control serum (0.025 mL) containing 37 IU/L, 175 IU/L, and 313 IU/L, respectively, of α-amylase were added to the detection reagent, independently, and incubated at 37° C. The enzymatic action of α-amylase on the substrate compound in each of the mixtures liberated the shorter chain chromogenic maltooligosaccharide compounds thereof (e.g., DMA-G2 to DMA-G4) which, in turn, were enzymatically acted upon by the α-glucosidase and β-glucosidaseto liberate the optically active form or anion of the 7-hydroxy-9,9-dimethyl- 9H-acridin-2-one chromogen. The rate of color change produced by the liberated chromogen in each of the mixtures was measured at 634 nm on a Cary 219 spectrophotometer (Varian Associates, Inc., Sonnyvale, Calif., USA) from between 1 and 9 minutes after each of the serum samples were added to the detection reagent (Table 2/FIG. 4).

Row | SMILES | rate at which the enzyme cleaves the substrate (Kcat) [1] | Km ([1]; read-out: binding constant (Km)) [µM] | solubility [2] | Reactivity (linear regression of L(R), reflectance at 630 nm) ([3]; 39 IU/L α-amylase in undiluted serum) | Reactivity (linear regression of L(R), reflectance at 630 nm) ([3]; 78 IU/L α-amylase in undiluted serum) | Reactivity (linear regression of L(R), reflectance at 630 nm) ([3]; 117 IU/L α-amylase in undiluted serum) | Reactivity (linear regression of L(R), reflectance at 630 nm) ([3]; 157 IU/L α-amylase in undiluted serum) | Reactivity (linear regression of L(R), reflectance at 630 nm) ([3]; 235 IU/L α-amylase in undiluted serum) | Reactivity (linear regression of L(R), reflectance at 630 nm) ([3]; 313 IU/L α-amylase in undiluted serum) | α-amylase reactivity, rate of color change at 634 nm ([4]; 37 IU/L α-amylase) [Absorbance/Minute] | α-amylase reactivity, rate of color change at 634 nm ([4]; 175 IU/L α-amylase) [Absorbance/Minute] | α-amylase reactivity, rate of color change at 634 nm ([4]; 313 IU/L α-amylase) [Absorbance/Minute]
1 | CC1(C)C2=CC(=O)C=CC2=Nc2ccc(O[C@@H]3O[C@H](CO)[C@@H](O)[C@H](O)[C@H]3O)cc21 [DMA-G1, 7-β-D-glucopyranosyloxy-9,9-dimethyl-9H-acridin-2-one] | 1.32×10^4 mol min.^-1 /mol. active site | 170 | soluble | – | – | – | – | – | – | – | – | –
2 | CC1(C)C2=CC(=O)C=CC2=Nc2ccc(O[C@@H]3O[C@H](CO)[C@@H](O[C@H]4O[C@H](CO)[C@@H](O[C@H]5O[C@H](CO)[C@@H](O[C@H]6O[C@H](CO)[C@@H](O[C@H]7O[C@H](CO)[C@@H](O[C@H]8O[C@H](CO)[C@@H](O[C@H]9O[C@H](CO)[C@@H](O)[C@H](O)[C@H]9O)[C@H](O)[C@H]8O)[C@H](O)[C@H]7O)[C@H](O)[C@H]6O)[C@H](O)[C@H]5O)[C@H](O)[C@H]4O)[C@H](O)[C@H]3O)cc21 [DMA-G7, 7-β-maltoheptaosyloxy-9,9-dimethyl-acridin-2-one] | – | – | – | 0.384 × 10^-2 and 0.373 × 10^-2 and 0.359 × 10^-2 | 0.957 × 10^-2 and 0.941 × 10^-2 and 0.954 × 10^-2 | 1.450 × 10^-2 and 1.510 × 10^-2 and 1.430 × 10^-2 | 1.781 × 10^-2 and 1.999 × 10^-2 and 1.886 × 10^-2 | 2.560 × 10^-2 and 2.596 × 10^-2 and 2.610 × 10^-2 | 2.961 × 10^-2 and 2.989 × 10^-2 and 2.916 × 10^-2 | 0.011 | 0.062 | 0.109
3 | CC1(C)C2=CC(=O)C=CC2=Nc2ccc(O)cc21 [liberated chromogen anion, 7-hydroxy-9,9-dimethyl-9H-acridin-2-one] | – | – | soluble | – | – | – | – | – | – | – | – | –
